{"source": "paper PMC11511053", "about": "“Characterization of Kunitz-Domain Anticoagulation Peptides Derived from Acinetobacter baumannii Exotoxin Protein F6W77” (Toxins, 2024)", "origin": "cited, not measured here", "system": "Target", "details": "Table 1, column Ref; ref PN2KPI [25], RVV inhibitor II [40], Simukunin [43], EnKT1 [48], SjKI-1 [22], Schixator [50], SmKI-1 [49], joannsin [44], KPI [45], BF9 [29], Fasxiator [42], Amblyomin-X [27], TAP [46], Bicolin [47]; cited from earlier work", "source_text": "Table 1 Natural Kunitz-type anticoagulant peptides from different organisms. | column: Target", "data": [{"substance": "TAP: Kunitz-type anticoagulant peptide from tick (YNRLCIKPRDWIDECDSNEGGERAYFRNGKGGCDSFWICPEDHTGADYYSSYRDCFNACI; UniProt P17726 1-60, looked up)", "values": [{"measurement": "Target", "value": "FXa"}]}]}
